Reference: patent US20250092054A1, “FUSED PYRIDINES FOR CONTROLLING INVERTEBRATE PESTS” (FMC Corporation, priority 2021, published 2025)
Like-named read-outs stand apart in the source and are kept apart here.

Key:
Type in all cases: in vivo
[1] = test system: green peach aphid (Myzus persicae (Sulzer)); assay: Test E: control of green peach aphid through contact and/or systemic means; conditions: 144 h
Experimental: (§1) Test compounds were formulated using a solution containing 10% acetone, 90% water and 300 ppm Activator 90® non-ionic surfactant (Loveland Products, Loveland, Colorado, USA). The formulated compounds were applied in 1 mL of liquid through an atomizer nozzle positioned 1.27 cm (0.5 inches) above the top of each test unit. Test compounds were sprayed at the rates indicated, and each test was replicated three times.
For evaluating control of green peach aphid (Myzus persicae (Sulzer)) through contact and/or systemic means, the test unit consisted of a small open container with a 12-15-day-old radish plant inside. This was pre-infested by placing on a leaf of the test plant 30-40 aphids on a piece of leaf excised from a culture plant (cut-leaf method). The aphids moved onto the test plant as the leaf piece desiccated. After pre-infestation, the soil of the test unit was covered with a layer of sand.
Test compounds were formulated and sprayed at 50 and 10 ppm. After spraying of the formulated test compound, each test unit was allowed to dry for 1 hour and then a black, screened cap was placed on top. The test units were held for 6 days in a growth chamber at 19-21° C. and 50-70% relative humidity. Each test unit was then visually assessed for insect mortality.

[2] = test system: corn planthopper (Peregrinus maidis (Ashmead)); assay: Test C: control of corn planthopper through contact and/or systemic means; conditions: 144 h, corn plant post-infested with nymphs, assessed after 6 days; for mortality at 50 ppm: sprayed at 50 ppm
Experimental: as §1
For evaluating control of corn planthopper (Peregrinus maidis (Ashmead)) through contact and/or systemic means, the test unit consisted of a small open container with a 3-4-day-old corn (maize) plant inside. White sand was added to the top of the soil prior to application of the test compound.
Test compounds were formulated and sprayed at 50 and 10 ppm. After spraying of the formulated test compound, the test units were allowed to dry for 1 h before they were post-infested with ˜15-20 nymphs (18-to-21-day-old). A black, screened cap was placed on the top of each test unit, and the test units were held for 6 days in a growth chamber at 22-24° C. and 50-70% relative humidity. Each test unit was then visually assessed for insect mortality.

[3] = test system: cotton melon aphid (Aphis gossypii (Glover)); assay: Test F: control of cotton melon aphid through contact and/or systemic means; conditions: 144 h
Experimental: as §1
For evaluating control of cotton melon aphid (Aphis gossypii (Glover)) through contact and/or systemic means, the test unit consisted of a small open container with a 5-day-old okra plant inside. This was pre-infested with 30-40 insects on a piece of leaf according to the cut-leaf method, and the soil of the test unit was covered with a layer of sand.
Test compounds were formulated and sprayed at 50 and 10 ppm. After spraying, the test units were maintained in a growth chamber for 6 days at 19° C. and 70% relative humidity. Each test unit was then visually assessed for insect mortality.

[4] = test system: potato leafhopper (Empoascafabae (Harris)); assay: Test D: control of potato leafhopper through contact and/or systemic means; conditions: 144 h
Experimental: as §1
For evaluating control of potato leafhopper (Empoascafabae (Harris)) through contact and/or systemic means, the test unit consisted of a small open container with a 5-6-day-old Soleil bean plant (primary leaves emerged) inside. White sand was added to the top of the soil, and one of the primary leaves was excised prior to application of the test compound.
Test compounds were formulated and sprayed at 50 and 10 ppm. After spraying of the formulated test compound, the test units were allowed to dry for 1 hour before they were post-infested with 5 potato leafhoppers (18-to-21-day-old adults). A black, screened cap was placed on the top of the test unit, and the test units were held for 6 days in a growth chamber at 20° C. and 70% relative humidity. Each test unit was then visually assessed for insect mortality.

[5] = sprayed at 50 ppm, pre-infested radish plant, assessed after 6 days, read-out: mortality
[6] = sprayed at 50 ppm, pre-infested okra plant, assessed after 6 days, read-out: mortality
[7] = sprayed at 10 ppm, Soleil bean plant post-infested with adults, assessed after 6 days, read-out: mortality
[8] = sprayed at 50 ppm, Soleil bean plant post-infested with adults, assessed after 6 days, read-out: mortality

CC(=O)NCc1ncc(C2=NOC(c3cccc(C(F)(F)F)c3)(C(F)(F)F)C2)c2ccoc12 (stereo not shown) [Compound 1, N-[[4-[4,5-dihydro-5-(trifluoromethyl)-5-[3-(trifluoromethyl)phenyl]-3-isoxazolyl]furo[2,3-c]pyridin-7-yl]methyl]acetamide]
≥ 80%: mortality at 50 ppm [1, 5] | mortality at 50 ppm [2] | mortality at 50 ppm [3, 6] | mortality at 10 ppm [4, 7] | mortality at 50 ppm [4, 8]

CNC(=O)[C@@H](C)NC(=O)c1cnc(C2=NOC(c3cc(Cl)cc(Cl)c3)(C(F)(F)F)C2)c2sccc12 (stereo partly drawn) [Compound 7, 7-[5-(3,5-dichlorophenyl)-4,5-dihydro-5-(trifluoromethyl)-3-isoxazolyl]-N-[(1R)-1-methyl-2-(methylamino)-2-oxo-ethyl]thieno[2,3-c]pyridine-4-carboxamide]
≥ 80%: mortality at 50 ppm ([1]; in Raphanus sativus) | mortality at 50 ppm [3] | mortality at 10 ppm [4] | mortality at 50 ppm [4]

O=C(NC1CC1)c1cnc(C2=NOC(c3cc(Cl)cc(Cl)c3)(C(F)(F)F)C2)c2sccc12 (stereo not shown) [Compound 11, N-cyclopropyl-7-[5-(3,5-dichlorophenyl)-4,5-dihydro-5-(trifluoromethyl)-3-isoxazolyl]thieno[2,3-c]pyridine-4-carboxamide]
≥ 80%: mortality at 10 ppm [4] | mortality at 50 ppm [4]

O=C(NC1CC1)c1ncc(C2=NOC(c3cc(Cl)c(F)c(Cl)c3)(C(F)(F)F)C2)c2ccoc12 (stereo not shown) [Compound 13, N-cyclopropyl-4-[5-(3,5-dichloro-4-fluorophenyl)-4,5-dihydro-5-(trifluoro-methyl)-3-isoxazolyl]furo[2,3-c]pyridine-7-carboxamide]
≥ 80%: mortality at 50 ppm ([1]; in Raphanus sativus) | mortality at 50 ppm [3] | mortality at 10 ppm [4] | mortality at 50 ppm [4]

O=C(NCC1CC1)c1ncc(C2=NOC(c3cc(Cl)c(F)c(Cl)c3)(C(F)(F)F)C2)c2ccoc12 (stereo not shown) [Compound 14, N-(cyclopropylmethyl)-4-[5-(3,5-dichloro-4-fluorophenyl)-4,5-dihydro-5-(trifluoromethyl)-3-isoxazolyl]furo[2,3-c]pyridine-7-carboxamide]
≥ 80%: mortality at 10 ppm [4] | mortality at 50 ppm [4]

CCC(=O)NCc1ncc(C2=NOC(c3cccc(C(F)(F)F)c3)(C(F)(F)F)C2)c2ccoc12 (stereo not shown) [Compound 23, N-[[4-[4,5-dihydro-5-(trifluoromethyl)-5-[3-(trifluoromethyl)phenyl]-3-isoxazolyl]furo[2,3-c]pyridin-7-yl]methyl]propanamid]
≥ 80%: mortality at 10 ppm ([1]; sprayed at 10 ppm, pre-infested radish plant, assessed after 6 days) | mortality at 50 ppm [1, 5] | mortality at 10 ppm ([2]; sprayed at 10 ppm) | mortality at 50 ppm [2] | mortality at 10 ppm ([3]; sprayed at 10 ppm, pre-infested okra plant, assessed after 6 days) | mortality at 50 ppm [3, 6] | mortality at 10 ppm [4, 7] | mortality at 50 ppm [4, 8]

O=C(NC1CC1)c1cnc(C2=NOC(c3cc(Cl)cc(Cl)c3)(C(F)(F)F)C2)c2ccsc12 (stereo not shown) [Compound 26, N-cyclopropyl-4-[5-(3,5-dichlorophenyl)-4,5-dihydro-5-(trifluoromethyl)-3-isoxazolyl]thieno[3,2-c]pyridine-7-carboxamide]
≥ 80%: mortality at 50 ppm [4]

O=C(NC1CSC1)c1cnc(C2=NOC(c3cc(Cl)cc(Cl)c3)(C(F)(F)F)C2)c2ccsc12 (stereo not shown) [Compound 27, 4-[5-(3,5-dichlorophenyl)-4,5-dihydro-5-(trifluoromethyl)-3-isoxazolyl]-N-3-thietanylthieno[3,2-c]pyridine-7-carboxamide]
≥ 80%: mortality at 50 ppm [4]

CNC(=O)[C@@H](C)NC(=O)c1ncc(C2=NOC(c3cc(Cl)c(F)c(Cl)c3)(C(F)(F)F)C2)c2c1CCC2 (stereo partly drawn) [Compound 30, 4-[5-(3,5-dichloro-4-fluorophenyl)-4,5-dihydro-5-(trifluoromethyl)-3-isoxazolyl]-6,7-dihydro-N-[(1R)-1-methyl-2-(methylamino)-2-oxoethyl]-5H-cyclopenta[c]pyridine-1-carboxamide]
≥ 80%: mortality at 50 ppm [3]
